Structures can show the parent of a compound that is named as a salt.

In the case of `C[C@H](NC(=O)c1c(CN2CCC(N3CCCCC3)CC2)c(-c2ccccc2)nc2cc(O)ccc12)C1CCCCC1` [Example 15, 3-[1,4′]Bipiperidinyl-1′-ylmethyl-7-hydroxy-2-phenyl-quinoline-4-carboxylic Acid ((S)-1-cyclohexyl-ethyl)-amide], the melting point was 177.9 to 178 °C.
As for `C[C@H](NC(=O)c1c(CN2CCC(N3CCCCC3)CC2)c(-c2ccccc2)nc2cc(F)ccc12)C1CCCCC1` [Example 25, 3-[1,4′]Bipiperidinyl-1′-ylmethyl-7-fluoro-2-phenyl-quinoline-4-carboxylic Acid ((S)-1-cyclohexyl-ethyl)-amide], the melting point was 161 to 163 °C.
The compound `C[C@H](NC(=O)c1c(CN2CCC(N3CCCCC3)CC2)c(-c2ccccc2)nc2cc(O)ccc12)c1ccccc1` [Example 18, 3-[1,4′]Bipiperidinyl-1′-ylmethyl-7-hydroxy-2-phenyl-quin line-4-carboxylic Acid ((S)-1-phenyl-ethyl)-amide] yielded a melting point of 99.6 to 99.7 °C.
The result for `CC[C@H](NC(=O)c1c(CN2CCC(N3CCCCC3)CC2)c(-c2ccccc2)nc2cc(OCC(N)=O)ccc12)c1ccccc1` (as salt: hydrochloride) [Example 20, 3-[1,4′]Bipiperidinyl-1′-ylmethyl-7-carbamoylmethoxy-2-phenyl-quinoline-4-carboxylic Acid ((S)-1-phenyl-propyl)-amide Dihydrochloride] reads 218 to 220 °C; that for `CCOC(=O)COc1ccc2c(C(=O)N[C@@H](CC)c3ccccc3)c(CN3CCC(N4CCCCC4)CC3)c(-c3ccccc3)nc2c1` [Example 16, [3-[1,4′]Bipiperidinyl-1′-ylmethyl-2-phenyl-4-((S)-1-phenyl-propylcarbamoyl)-quinolin-7-yloxy]-acetic Acid Ethyl Ester], 101 to 104 °C; that for `C[C@H](NC(=O)c1c(CN2CCC(N3CCCCC3)CC2)c(-c2ccccc2)nc2cc(Cl)ccc12)C1CCCCC1` [Example 24, 3-[1,4′]Bipiperidinyl-1′-ylmethyl-7-chloro-2-phenyl-quinoline-4-carboxylic acid ((S)-1-cyclohexyl-ethyl)-amide], 152 to 154 °C.
In turn, `C[C@H](NC(=O)c1c(CN2CCC(N)CC2)c(-c2ccccc2)nc2ccccc12)c1ccccc1` [Example 7, 3-(4-Amino-piperidin-1-ylmethyl)-2-phenyl-quinoline-4-carboxylic Acid ((S)-1-phenyl-ethyl)-amide] registered a melting point of 118 to 119 °C.
The result for `C[C@H](NC(=O)c1c(CN2CCC(N3CCCCC3)CC2)c(-c2cccs2)nc2ccccc12)C1CCCCC1` [Example 27, 3-[1,4′]Bipiperidinyl-1-ylmethyl-2-thiophen-2-yl-quinoline-4-carboxylic Acid ((S)-1-cyclohexyl-ethyl)-amide] reads 165 to 166 °C; that for `C[C@H](NC(=O)c1c(CN2CCC(N3CCCCC3)CC2)c(-c2ccc(C(F)(F)F)cc2)nc2ccccc12)C1CCCCC1` [Example 30, 3-[1,4′]Bipiperidinyl-1′-ylmethyl-2-(4-trifluoromethyl-phenyl) -quinoline-4-carboxylic Acid ((S)-1-cyclohexyl-ethyl)-amide], 138 to 140 °C; that for `C[C@H](NC(=O)c1c(CN2CCC(N3CCCC(C(=O)O)C3)CC2)c(-c2ccccc2)nc2ccccc12)C1CCCCC1` (stereo partly drawn) [Example 14, 1′-[4-((S)-1-Cyclohexyl-ethylcarbamoyl)-2-phenyl-quinolin-3-ylmethyl]-[1,4′]bipiperidinyl-3-carboxylic Acid], 160 to 165 °C.
On to `C[C@H](NC(=O)c1c(CN2CCC(N)CC2)c(-c2ccccc2)nc2ccccc12)C1CCCCC1` [Example 6, 3-(4-Amino-piperidin-1-ylmethyl)-2-phenyl-quinoline-4-carboxylic Acid ((S)-1-cyclohexyl-ethyl)-amide], for which the melting point lay within 140 to 145 °C.
The figure for `C[C@H](NC(=O)c1c(CN2CCC(N3CCCCC3)CC2)c(-c2ccccc2)nc2c(F)cccc12)C1CCCCC1` [Example 26, 3-[1,4′]Bipiperidinyl-1′-ylmethyl-8-fluoro-2-phenyl-quinoline-4-carboxylic Acid ((S)-1-cyclohexyl-ethyl)-amide] is 113 °C; for `CCOC(=O)C1CCCN(C2CCN(Cc3c(-c4ccccc4)nc4ccccc4c3C(=O)N[C@@H](C)C3CCCCC3)CC2)C1` (stereo partly drawn) [Example 13, 1′-[4-((S)-1-Cyclohexyl-ethylcarbamoyl)-2-phenyl-quinolin-3-ylmethyl]-[1,4′]bipiperidinyl-3-carboxylic Acid Ethyl Ester] it is 104 to 105 °C.
Compound `COc1ccc2c(C(=O)N[C@H](c3ccccc3)C(C)C)c(CN3CCC(N4CCCCC4)CC3)c(-c3ccccc3)nc2c1` [Example 22, 3-[1,4′]Bipiperidinyl-1′-ylmethyl-7-methoxy-2-phenyl-quinoline-4-carboxylic Acid ((S)-2-methyl-1-phenyl-propyl)-amide] came in with a melting point of 113 to 116 °C.
Compound `CC[C@H](NC(=O)c1c(CN2CCC(N3CCCCC3)CC2)c(-c2ccccc2)nc2cc(OCCO)ccc12)c1ccccc1` [Example 19, 3-[1,4′]Bipiperidinyl-1′-ylmethyl-7-(2-hydroxy-ethoxy)-2-phenyl-quinoline-4-carboxylic acid ((S)-1-phenyl-propyl)-amide] showed a melting point of 118 to 122 °C.
Regarding `C[C@H](NC(=O)c1c(CN2CCC(N3CCCCC3)CC2)c(-c2ccccc2)nc2ccc(F)cc12)C1CCCCC1` [Example 28, 3-[1,4′]Bipiperidinyl-1′-ylmethyl-6-fluoro-2-phenyl-quinoline-4-carboxylic Acid ((S)-1-cyclohexyl-ethyl)-amide], the melting point was 174 to 175 °C.
On to `CC(C)[C@H](NC(=O)c1c(CN2CCC(N3CCCCC3)CC2)c(-c2ccccc2)nc2cc(O)ccc12)c1ccccc1` [Example 21, 3-[1,4′]Bipiperidinyl-1′-ylmethyl-7-hydroxy-2-phenyl-quinoline-4-carboxylic Acid ((S)-2-methyl-1-phenyl-propyl)-amide], for which the melting point was 200 to 204 °C (dec.).
`C[C@H](NC(=O)c1c(CN2CCC(N3CCCC3=O)CC2)c(-c2ccccc2)nc2ccccc12)c1ccccc1` [Example 12, 3-[4-(2-Oxo-pyrrolidin-1-yl)-piperidin-1-ylmethyl]-2-phenyl-quinoline-4-carboxylic Acid ((S)-1-phenyl-ethyl)-amide]: the melting point is 120 to 125 °C.
`C[C@H](NC(=O)c1c(CN2CCC(N3CCCCC3)CC2)c(-c2ccc(F)cc2)nc2ccccc12)C1CCCCC1` [Example 29, 3-[1,4′]Bipiperidinyl-1′-ylmethyl-2-(4-fluoro-phenyl)-quinoline-4-carboxylic Acid ((S)-1-cyclohexyl-ethyl)-amide] returned a melting point of 151 to 153 °C.
Compound `C[C@H](NC(=O)c1c(CN2CCC(N3CCCCC3=O)CC2)c(-c2ccccc2)nc2ccccc12)c1ccccc1` [Example 11, 3-(2-Oxo-[1,4′]bipiperidinyl-1′-ylmethyl)-2-phenyl-quinoline-4-carboxylic Acid ((S)-1-phenyl-ethyl)-amide] yielded a melting point of 124 to 125 °C.
As to `CC[C@H](NC(=O)c1c(CN2CCC(N3CCCCC3)CC2)c(-c2ccccc2)nc2cc(OCC(=O)O)ccc12)c1ccccc1` (as salt: hydrochloride) [Example 17, [3-[1,4′]Bipiperidinyl-1′-ylmethyl-2-phenyl-4((S)-1-phenyl-propylcarbamoyl)-quinolin-7-yloxy]-acetic Acid Dihydrochloride], the melting point was 196 °C (dec.).

By melting point is commonly meant the temperature, or range, at which the solid turns liquid.
